Source: patent US5424326A, “Phenyl-1,2,5-oxadiazolecarboxamide-2-oxides, their preparation and their use” (Cassella Aktiengesellschaft, priority 1992, dated 1995)
Where two headings read alike, the source gives them in different places.

Tested on: pulmonary artery of the guinea-pig
Test: relaxation of potassium-depolarised pulmonary artery strips of the guinea-pig (CaCl2-induced contraction)
Conditions: 40 mmol/l potassium, 0.5 mmol/l CaCl2, cumulative addition, average value of 4 to 6 vessel strips, read-out: IC50 (concentration which inhibits the contraction by 50%)
Procedure: In this method, spiral strips of the pulmonary artery of the guinea-pig are depolarised with 40 mmol/l of potassium after equiliberation in calcium-free Tyrode solution. An addition of 0.5 mmol/l of CaCl2 then induces a contraction.
The relaxing action of the test substance is determined by cumulative addition in 1/2 log 10 graded concentrations.

Compound | IC50 (Cavia porcellus) [nM] | IC50 [nM]
COc1ccc(-c2no[n+]([O-])c2C(=O)NCCN(C(C)C)C(C)C)cc1OC [Compound 13a] | 300 | 
O=[N+]([O-])OC1COC2C(O)COC12 (stereo not shown) [Isosorbide-5-mononitrate, reference compound] | > 100000 | 
N-Butyl-3-phenyl-1,2,5-oxadiazole-4-carboxamide-2-oxide [Compound 5a] |  | 700
O=C(NCc1ccncc1)c1no[n+]([O-])c1-c1ccccc1 [Compound 14b] | 1000 | 
CC(C)N(CCNC(=O)c1no[n+]([O-])c1-c1ccccc1)C(C)C [Compound 12b] | 2000 | 
N-(3-Diethylaminopropyl)-3-phenyl-1,2,5-oxadiazole-4-carboxamide-2-oxide [Compound 6a] |  | 400

Continued, values first:

IC50 (Cavia porcellus) [nM] | IC50 [nM] | Compound
1000 |  | NC(=O)CNC(=O)c1c(-c2ccccc2)no[n+]1[O-] [Compound 10a]
300 |  | O=C(NCc1cccnc1)c1c(-c2ccccc2)no[n+]1[O-] [Compound 7a]
2000 |  | O=C(NCc1cccnc1)c1no[n+]([O-])c1-c1ccccc1 [Compound 7b]
500 |  | O=C(NCc1ccncc1)c1c(-c2ccccc2)no[n+]1[O-] [Compound 14a]
 | 5000 | N-Methyl-3-(3,4-dimethoxyphenyl)-1,2,5-oxadiazole-4-carboxamide-2-oxide [Compound 4a]
1000 |  | CNC(=O)c1c(-c2ccccc2)no[n+]1[O-] [Compound 1a, N-Methyl-4-phenyl-1,2,5-oxadiazole-3-carboxamide-2-oxide]
300000 |  | CCOC(=O)[N-]c1cn(N2CCOCC2)n[o+]1 [Molsidomine, reference compound]
